The target of assay [1] is T1, MERS-CoV M^pro (Human betacoronavirus 2c EMC/2012, UniProt K0BWD0). In words: biochemical.
The target in a further assay is cathepsin L (Homo sapiens, UniProt P07711). In words: FRET enzymatic assay. It is filed as biochemical.
In assay [2] the target is T1, MERS-CoV M^pro. It is filed as biochemical. The note with it: read-out: KI.

SMILES strings stand for the structures. Where two headings read alike, the source gives them in different places.

cathepsin L, sequence (P07711 114-288): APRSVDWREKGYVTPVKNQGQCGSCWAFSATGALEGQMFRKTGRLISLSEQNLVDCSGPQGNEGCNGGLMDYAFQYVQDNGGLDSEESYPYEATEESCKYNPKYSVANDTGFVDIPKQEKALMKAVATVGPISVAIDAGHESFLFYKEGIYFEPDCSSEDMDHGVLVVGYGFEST
cathepsin L, sequence (P07711 292-333): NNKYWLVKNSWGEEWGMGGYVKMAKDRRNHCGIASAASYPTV
T1 sequence (K0BWD0 3248-3553 limits assumed): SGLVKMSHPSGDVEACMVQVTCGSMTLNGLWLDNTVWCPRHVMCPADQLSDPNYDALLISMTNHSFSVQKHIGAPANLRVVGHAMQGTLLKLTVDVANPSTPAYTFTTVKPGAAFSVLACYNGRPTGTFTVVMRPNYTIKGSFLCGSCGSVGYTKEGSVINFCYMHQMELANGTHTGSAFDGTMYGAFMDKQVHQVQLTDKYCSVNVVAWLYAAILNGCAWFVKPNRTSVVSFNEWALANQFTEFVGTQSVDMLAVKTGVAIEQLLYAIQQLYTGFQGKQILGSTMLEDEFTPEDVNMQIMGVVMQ

On to `CCCC(NC(=O)[C@H](CC(C)C)NC(=O)OCc1ccccc1)C(=O)C(=O)NCc1ccccn1` (some centres unmarked) [calpain inhibitor XII], for which the affinity on MERS-CoV M^pro [1] corresponds to a Ki of 1320 ± 70 nM. Also, the IC50 (usually the concentration at which inhibition is half-maximal) on cathepsin L (individual value only in figure) is “calpain inhibitors II and XII and GC-376 had potent inhibition against cathepsin L”.

As to `CC(C)(C)NC(=O)N[C@H](C(=O)N1C[C@H]2[C@@H]([C@H]1C(=O)NC(CC1CCC1)C(=O)C(N)=O)C2(C)C)C(C)(C)C` (some centres unmarked) [boceprevir], inhibition against cathepsin L was half-maximal at 153 nM (IC50). Also, the KI (inactivation) at MERS-CoV M^pro [2] amounted to 1650 ± 120 nM.

In turn, `CC(C)C[C@H](NC(=O)[C@@H]1O[C@H]1C(=O)O)C(=O)NCCCCN=C(N)N` [E-64, reference compound] displayed an IC50 at cathepsin L of 5.45 nM.

Source of the values: publication PMC7944397 (ACS infectious diseases, 2021).
